From article PMC9531372, “Metabolic profiling and pharmacokinetic studies of Baihu-Guizhi decoction in rats by UFLC-Q-TOF–MS/MS and UHPLC-Q-TRAP-MS/MS” (Chinese Medicine, 2022) come the findings set out here.

The data set in a line: Pharmacokinetics of five absorbed components in rat serum after single or multiple gavage of BHGZD (UHPLC-Q-TRAP-MS/MS). Particulars: for AUC(0-inf) / AUC(0-t) / Cmax / MRT inf / MRT last / half-life / Tmax / CL / Vd: male, Lewis, rat, po. From the text: Male Lewis rats, weighing 200–240 g, were purchased from Beijing Charles River Experimental Animals Co. Ltd. (Beijing, China). […] Animal experiments were approved and supervised by the National Institutes of Health guide for the care and use of Laboratory animals. Every effort was made to minimize both the employed animal numbers as well as the potential discomfort of the animals throughout the study.
For single administration, rats were orally administrated with BHGZD powder at dose of 21.4 g/kg, which was equivalent to two-fold of clinical dose in human. […] For multiple administration, rats were intragastrically administered BHGZD (21.4 g/kg/day) once a day, for continuous 12 days. […] Serum was freshly prepared by centrifugation and stored at – 80 ℃ till analysis.
Quantification for five absorbed compounds of BHGZD in rat serum were achieved by using a Shimadzu ultra-high-performance liquid chromatography tandem ion trap quadrupole Q-TRAP 6500 plus mass spectrometry (UHPLC-Q-TRAP-MS/MS). Sample preparations were described above.
Chromatographic separation was carried out on a Poroshell 120 EC-C18 column (50 × 3.0 mm, 2.7 μm, Agilent, USA) with a flow rate 0.3 mL/min.
The optimized parameters for the mass spectrometer were set as follows: curtain gas, 35 psi; collision gas, medium; ionspray voltage, 4500 V; temperature, 550 °C; ion source gas 1 and 2, 55 psi. […] Data acquisition and analysis were achieved by OS-Q software (version 1.4.1.20719, AB Sciex, USA). Pharmacokinetic analysis was conducted by Drug and Statistic software (version 3.0, Shanghai, China).
The developed methodology was then applied for the in vivo pharmacokinetic evaluations of these five absorbed components. After single or multiple gavages of BHGZD, rat serum was collected at indicated time points, and the concentrations of five analyte were quantified accordingly.

The mark [1] stands for this setting: serum, 21.4 g/kg, rat serum, BHGZD 21.4 g/kg oral gavage, single dose, n = 8, mean ± SEM.

Structures are written as SMILES.

Usually AUC(0-inf) stands for total exposure, with the tail of the curve extrapolated. By AUC(0-t) is commonly meant the area under the concentration-time curve up to a stated or last time point. Low readings indicate low exposure, high ones high exposure. For orientation: Cmax means the highest concentration seen after dosing. Broadly, the MRT inf is a mean duration of stay, worked out from the concentration-time curve. By MRT last is commonly meant a mean duration of stay, worked out from the concentration-time curve. Broadly, the half-life is the time needed for the level to fall by half in the phase considered. A lower half-life goes with rapid decline. As usually defined, the Tmax is the time at which the peak concentration occurs.

Where the note is “serum, 21.4 g/kg”, `O=C(O)/C=C/c1ccccc1` [Cinnamic acid] had an AUC(0-inf) of 307 ± 120 ng·h/mL, an AUC(0-t) of 110 ± 127 ng·h/mL, a Cmax of 53.3 ± 32.6 ng/mL and a mean residence time (MRT inf) of 10.5 ± 12.5 h. For the setting “serum, 21.4 g/kg”, the MRT last turned out to be 3.66 ± 1.03 h and the half-life is 2.36 ± 1.03 h. Besides, the Tmax (serum, 21.4 g/kg, rat serum after BHGZD gavage, regimen not given) is about 0.3 h. The time to peak (Tmax) under setting [1] was 0.37 ± 0.35 h.
On to `CC1(C)[C@@H](O[C@H]2O[C@H](C(=O)O)[C@@H](O)[C@H](O)[C@H]2O[C@@H]2O[C@H](C(=O)O)[C@@H](O)[C@H](O)[C@H]2O)CC[C@]2(C)[C@H]3C(=O)C=C4[C@@H]5C[C@@](C)(C(=O)O)CC[C@]5(C)CC[C@@]4(C)[C@]3(C)CC[C@@H]12` [Glycyrrhizic acid], for which, under “in vivo, 21.4 g/kg”, the AUC(0-inf) was determined as 91.8 ± 44.2 ng·h/mL, the AUC(0-t) was 67.3 ± 36.8 ng·h/mL, the CL is on record as 288,330 ± 150,321 L/h/kg and the Cmax amounted to 15.6 ± 8.97 ng/mL. Besides, for the setting “in vivo, 21.4 g/kg”, the MRT inf turned out to be 5.83 ± 1.42 h, the MRT last stood at 5.06 ± 1.37 h, the Vd is 867,518 ± 160,982 L/kg and the half-life is 2.99 ± 0.82 h. Moreover, the Tmax (in vivo, 21.4 g/kg) was determined as 5.88 ± 2.85 h.
Turning to `O=c1c2cc(O)c(O)cc2oc2cc(O)c([C@@H]3O[C@H](CO)[C@@H](O)[C@H](O)[C@H]3O)c(O)c12` [Mangiferin], for the setting “in vivo, 21.4 g/kg”, the AUC(0-inf) turned out to be 298 ± 298 ng·h/mL, the AUC(0-t) turned out to be 266 ± 306 ng·h/mL, the CL is 228,709 ± 238,817 L/h/kg and the concentration peaked (Cmax) at 48.1 ± 52.7 ng/mL. Also, for the setting “in vivo, 21.4 g/kg”, the MRT inf came to 6.72 ± 6.64 h, the MRT last worked out at 3.6 ± 0.75 h, the Vd is recorded as 1,049,685 ± 1,125,516 L/kg and the half-life is 3.64 ± 4.82 h. The time to peak (Tmax) (in vivo, 21.4 g/kg) was 2.56 ± 1.68 h.
Regarding `C[C@H]1CC[C@@]2(OC1)O[C@H]1C[C@H]3[C@@H]4CC[C@@H]5C[C@@H](O[C@@H]6O[C@H](CO)[C@H](O)[C@H](O)[C@H]6O[C@@H]6O[C@H](CO)[C@@H](O)[C@H](O)[C@H]6O)CC[C@]5(C)[C@H]4CC[C@]3(C)[C@H]1[C@@H]2C` [Timosaponin AIII], where the note is “serum, 21.4 g/kg”, the AUC(0-inf) was 45.3 ± 13.9 ng·h/mL, the AUC(0-t) amounted to 35.6 ± 7.99 ng·h/mL, the highest level (Cmax) was 5.41 ± 1.23 ng/mL and the MRT inf turned out to be 9.92 ± 2.73 h. Under “serum, 21.4 g/kg”, this compound showed an MRT last of 7.54 ± 1.15 h and a half-life of 4.98 ± 1.74 h. Moreover, the Tmax under setting [1] came to 6.38 ± 1.69 h. Also, under “serum, 21.4 g/kg/day, rat serum, BHGZD 21.4 g/kg/day gavage once a day for 12 days, multiple dose, sampled day 12, n = 8, mean ± SEM”, the time to peak (Tmax) amounted to 4.62 ± 2.13 h. The “pattern of absorption and elimination in serum” value (rat serum, single or multiple gavages of BHGZD) was “dual-peak response with prolonged pattern of absorption and elimination”.
